# Experimental data reported in patent EP0414533A1, “Use of iodopropargyl esters of alpha-amino acid derivatives as antimicrobial agents” (ROHM AND HAAS COMPANY, priority 1989, dated 1991).
# Values joined by “and” are separate entries in the source; they are usually repeats but may differ in a detail not shown here. Identical values can stand only once. Counter-ions that a name gives are not always drawn. Like-named read-outs stand apart in the source and are kept apart here.
# Tests used:
# Septoria nodorum (SEP) = assay: In-vitro plant fungicide test; assay type: cell-based; settings: 25 ppm, Table IVa; for inhibition of growth at 25 ppm: Parastagonospora nodorum, read-out: % Control at 25 ppm SEP
# Piricularia oryzae (PIR) = assay: microbe, parasite or virus in culture; assay type: cell-based; settings: for inhibition of growth at 25 ppm: read-out: % Control at 25 ppm PIR
# Pythium ultimum (PYU) = assay: In-vitro plant fungicide test; assay type: cell-based; settings: 25 ppm, Table IVa; for inhibition of growth at 25 ppm: Globisporangium ultimum, read-out: % Control at 25 ppm PYU
# Rhizoctonia solani (RHI) = assay: In-vitro plant fungicide test; assay type: cell-based; settings: 25 ppm, Table IVa; for inhibition of growth at 25 ppm: Rhizoctonia solani, read-out: % Control at 25 ppm RHI
# [1] = system: Cochliobolus sativus (HEL); assay: In-vitro plant fungicide test; assay type: cell-based; settings: 25 ppm, Table IVa, *=Phytotoxic; for inhibition of growth at 25 ppm: Bipolaris sorokiniana, read-out: % Control at 25 ppm HEL
# [2] = system: Phytophthora capsici (PHY); assay: In-vitro plant fungicide test; assay type: cell-based; settings: 25 ppm, Table IVa; for inhibition of growth at 25 ppm: Phytophthora capsici, read-out: % Control at 25 ppm PHY
# [3] = system: Staphylococcus aureus (SAUR); assay: Minimum inhibitory concentration (MIC), broth two-fold serial dilution test; settings: Table IIIa; for MIC (G+) SAUR: M9G (minimal salts media with glucose)
# From the text: When the test is ready to be done, each vessel in the dilution series, except the first vessel, contains an equal volume of compound free broth. The first vessel contains twice the volume of broth with the starting concentration of test compound. One half of the broth from the first vessel is transferred to the second vessel. After being mixed, one half the resulting volume is removed from the second vessel and transferred to the third vessel. The entire cycle is repeated sufficiently to give a series of concentrations amounting to 500, 250, 125, 63, 31, 16, 8, and 4 ppm (or 100, 50, 25, 12.5, 6.2, 3.1, 1.6, and 0.8), respectively.
# Each vessel is then inoculated with a cell suspension of the appropriate test organism. Bacteria are grown in broth, fungi on agar slants for a time and at a temperature appropriate to the species being tested, and algae are a mixture of green algae and blue-green bacteria grown in a nutrient media. At the end of the growth period, in the case of bacteria, the broth is vortexed to disperse the cells.
# The vessels are then incubated at the appropriate temperature. After the incubation, the vessels are examined for growth/no growth.
# THREE FUNGI = assay: MIC test against three fungi in Mycophile Broth, pH 5.0, read after 8 days (Table VII); assay type: cell-based; settings: for MIC: 192 h
# [4] = system: Xanthomonas campestris (XAN); assay: In-vitro plant fungicide test; assay type: cell-based; settings: 25 ppm, Table IVa; for inhibition of growth at 25 ppm: Xanthomonas campestris, read-out: % Control at 25 ppm XAN
# Botrytis cinerea (BOC) = assay: In-vitro plant fungicide test; assay type: cell-based; settings: 25 ppm, Table IVa, *=Phytotoxic; for inhibition of growth at 25 ppm: Botrytis cinerea, read-out: % Control at 25 ppm BOC
# Fusarium roseum (FUS) = assay: In-vitro plant fungicide test; assay type: cell-based; settings: Table IVa, *=Phytotoxic; for inhibition of growth at 25 ppm: Fusarium sambucinum, read-out: % Control at 25 ppm FUS, 25 ppm
# [5] = system: Pseudomonas aerugenosa (PSAE); assay: Minimum inhibitory concentration (MIC), broth two-fold serial dilution test; settings: Table IIIa; for MIC (G-) PSAE: M9G (minimal salts media with glucose), trifluoroacetate; for MIC: Pseudomonas, read-out: MIC (G-) PSAE, M9G (minimal salts media with glucose)
# Escherichia coli (ECOL) = assay: as above; settings: for MIC: Escherichia coli, read-out: MIC (G-) ECOL, M9G (minimal salts media with glucose); for MIC (G-) ECOL: M9G (minimal salts media with glucose)
# Aspergillus niger (ANIG) = assay: as above; assay type: cell-based; settings: M9G (minimal salts media with glucose); for MIC: Aspergillus niger, read-out: MIC (F) ANIG
# [6] = system: Aureobasidium pullulans (APUL); assay: as above; assay type: cell-based; settings: M9G (minimal salts media with glucose); for MIC: Aureobasidium pullulans, read-out: MIC (F) APUL
# [7] = Aspergillus niger, pH 5, read-out: MIC ANIG, Aspergillus niger, serial dilutions from 50 ppm, read after 8 days of incubation
# [8] = Aureobasidium pullulans, pH 5, read-out: MIC APUL, Aureobasidium pullulans, serial dilutions from 50 ppm, read after 8 days of incubation
# [9] = Gloeophyllum trabeum, pH 5, read-out: MIC GTRA, Gloeophyllum trabeum, serial dilutions from 50 ppm, read after 8 days of incubation
# [10] = Aspergillus niger, serial dilutions from 50 ppm, read after 8 days of incubation, read-out: MIC ANIG
# [11] = Aureobasidium pullulans, serial dilutions from 50 ppm, read after 8 days of incubation, read-out: MIC APUL
# [12] = Gloeophyllum trabeum, serial dilutions from 50 ppm, read after 8 days of incubation, read-out: MIC GTRA
# [13] = Table IIIc, iodopropargyl esters of peptides
Structure (SMILES),MIC (G+) SAUR [3],inhibition of growth at 25 ppm (Septoria nodorum (SEP)) [%],MIC (G-) PSAE [5] [PPM],MIC [5] [µg/mL],MIC (Escherichia coli (ECOL); Table IIIa) [µg/mL],"MIC (G-) ECOL (Escherichia coli (ECOL); Table IIIa, trifluoroacetate) [PPM]",inhibition of growth at 25 ppm (Piricularia oryzae (PIR)) [%],inhibition of growth at 25 ppm (Pythium ultimum (PYU)) [%],inhibition of growth at 25 ppm (Rhizoctonia solani (RHI)) [%],inhibition of growth at 25 ppm [1] [%],inhibition of growth at 25 ppm [2] [%],MIC (THREE FUNGI; [7]) [µg/mL],MIC (THREE FUNGI; [8]) [µg/mL],MIC (THREE FUNGI; [9]) [µg/mL],inhibition of growth at 25 ppm [4] [%],inhibition of growth at 25 ppm (Botrytis cinerea (BOC)) [%],inhibition of growth at 25 ppm (Fusarium roseum (FUS)) [%],MIC (THREE FUNGI; [10]) [µg/mL],MIC (THREE FUNGI; [11]) [µg/mL],MIC (THREE FUNGI; [12]) [µg/mL],further results
"C#CCSC[C@H](NC(=O)OC(C)(C)C)C(=O)OCC#CI [Compound 6, N-t-butoxycarbonyl-S-propargyl-L-cysteine iodopropargyl ester]",>100 PPM and 64 PPM,,,,,,,,,,,,,,,,,,,,"% Control at 25 ppm SEP (Septoria nodorum (SEP)): 100%; % Control at 25 ppm PIR (Piricularia oryzae (PIR); 25 ppm): 100%; % Control at 25 ppm PYU (Pythium ultimum (PYU)): 100%; % Control at 25 ppm RHI (Rhizoctonia solani (RHI)): 100%; % Control at 25 ppm HEL [1]: 100%; % Control at 25 ppm PHY [2]: 100%; MIC ANIG (THREE FUNGI; Aspergillus niger, serial dilutions from 50 ppm, read after 8 days of incubation): 12.5 ppm; MIC APUL (THREE FUNGI; Aureobasidium pullulans, serial dilutions from 50 ppm, read after 8 days of incubation): 25 ppm; MIC GTRA (THREE FUNGI; Gloeophyllum trabeum, serial dilutions from 50 ppm, read after 8 days of incubation): 3.2 ppm; % Control at 25 ppm XAN [4]: 0%; % Control at 25 ppm BOC (Botrytis cinerea (BOC)): 0%; % Control at 25 ppm FUS (Fusarium roseum (FUS); 25 ppm): 100%"
"NCC(=O)OCC#CI [Compound 7, glycine iodopropargyl ester trifluoroacetate]",,100,125,100,100,64,100,100,100,100,100,25,50,12.5,0,100,100,,,,
"C[C@H](N)C(=O)OCC#CI [Compound 8, L-alanine iodopropargyl ester trifluoroacetate]",,100,>100,125,64,>100,100,100,100,100,100,12.5,25,12.5,0,100,100,,,,"MIC (F) ANIG (Aspergillus niger (ANIG); Table IIIa, trifluoroacetate): <4 PPM and 3 PPM; MIC (F) APUL ([6]; Table IIIa, trifluoroacetate): <4 PPM and 2 PPM"
"C[C@@H](NC(=O)OC(C)(C)C)C(=O)OCC#CI [Compound 23, N-t-butoxycarbonyl-D-alanine iodopropargyl ester]",32 PPM,100,,,,,100,100,100,100,,,,,0,100,100,6.2,25,1.6,"MIC (Aspergillus niger (ANIG); Table IIIa): < 4 µg/mL; MIC ([3]; Staphylococcus aureus, read-out: MIC (G+) SAUR, M9G (minimal salts media with glucose)): 63 µg/mL; MIC ([6]; Table IIIa): < 4 µg/mL"
"C[C@@H](NC(=O)OC(C)(C)C)C(=O)N[C@H](C)C(=O)OCC#CI [Compound 25, N-t-butoxycarbonyl-D-alanyl-D-alanine iodopropargyl ester]",,,,,,,,,,,,,,,,,,50,> 50,6.2,"MIC (Aspergillus niger (ANIG); [13]): < 4 µg/mL; MIC (Escherichia coli (ECOL); [13]): 63 µg/mL; MIC [6, 13]: < 4 µg/mL"
"C[C@H](NC(=O)[C@@H](C)NC(=O)OC(C)(C)C)C(=O)OCC#CI [Compound 26, N-t-butoxycarbonyl-D-alanyl-L-alanine iodopropargyl ester]",,,,,,,,,,,,,,,,,,25,50,6.2,"MIC (F) ANIG (Aspergillus niger (ANIG); [13]): <4 PPM; MIC (Escherichia coli (ECOL); [13]): 63 µg/mL; MIC (G-) ECOL (Escherichia coli (ECOL); [13]): 32 PPM; MIC [6, 13]: < 4 µg/mL; MIC (F) APUL [6, 13]: 8 PPM"
